These results are taken from ChEMBL document CHEMBL5137097, “A Warhead Substitution Study on the Coronavirus Main Protease Inhibitor Nirmatrelvir” (ACS Med Chem Lett, 2022).

Usually IC50 stands for the concentration at which inhibition is half-maximal. Read a high IC50 as weaker potency in that assay. The term EC50 denotes the midpoint of the concentration-response curve.

Assay [1] concerns the target Replicase polyprotein 1ab (Severe acute respiratory syndrome coronavirus 2, UniProt P0DTD1). As to the kind of experiment: Inhibition of full length SARS-CoV-2 3CLpro expressed in Escherichia coli BL21 (DE3) cells using (DABCYL)KTSAVLQSGFRKM(Glu)(EDANS) peptide as substrate preincubated for 30 mins followed by substrate addition and measured after 1.5 hrs by FRET assay.

For assay [2], the target named is Replicase polyprotein 1ab (Human coronavirus 229E, UniProt P0C6X1). In words: Inhibition of full length C terminal His-tagged Human coronavirus 229E 3CLpro expressed in Escherichia coli Rosetta (DE3) cells using (DABCYL)KTSAVLQSGFRKM(Glu)(EDANS) peptide as substrate preincubated for 30 mins followed by substrate addition and measured after 1.5 hrs by FRET assay.
Chain of Replicase polyprotein 1ab (Human coronavirus 229E, UniProt P0C6X1) (P0C6X1 2966-3267 limits assumed): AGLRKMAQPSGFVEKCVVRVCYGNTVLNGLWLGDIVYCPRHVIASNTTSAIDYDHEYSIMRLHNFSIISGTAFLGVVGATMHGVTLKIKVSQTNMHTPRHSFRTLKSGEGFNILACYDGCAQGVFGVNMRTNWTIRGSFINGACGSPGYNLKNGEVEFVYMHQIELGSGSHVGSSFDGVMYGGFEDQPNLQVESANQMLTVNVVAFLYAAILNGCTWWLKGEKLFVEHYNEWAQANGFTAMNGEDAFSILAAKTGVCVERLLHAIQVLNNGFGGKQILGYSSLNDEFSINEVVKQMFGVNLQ

Assay [3] is described as follows: Antiviral activity against Human coronavirus 229E infected in human MRC5 cells assessed as […] cell viability measured after 4 days by CellTiter-Glo luminescence assay. In kind it is functional, cell-based. Conditions: MRC5, 96 h.

On to `CC(C)(C)[C@H](NC(=O)C(F)(F)F)C(=O)N1C[C@H]2[C@@H]([C@H]1C(=O)N[C@H](CO)C[C@@H]1CCNC1=O)C2(C)C`, for which the IC50 in assay [1] and in assay [2] was over 100000 nM in each case.
In turn, `CC(C)(C)[C@H](NC(=O)C(F)(F)F)C(=O)N1C[C@H]2[C@@H]([C@H]1C(=O)N[C@@H](C[C@@H]1CCNC1=O)C(=O)CO)C2(C)C` registered an IC50 in assay [2] of 13 nM. For the same compound, the EC50 in assay [3] amounted to 193 nM.
Take `CC(C)(C)[C@H](NC(=O)C(F)(F)F)C(=O)N1C[C@H]2[C@@H]([C@H]1C(=O)N[C@@H](C[C@@H]1CCNC1=O)C(=O)C(=O)NC1CC1)C2(C)C`: the IC50 is 19 nM in assay [1] and 70 nM in assay [2]. Further, in assay [3], the EC50 was determined as 2360 nM.
For the compound `CC(C)(C)[C@H](NC(=O)C(F)(F)F)C(=O)N1C[C@H]2[C@@H]([C@H]1C(=O)N[C@H](C=O)C[C@@H]1CCNC1=O)C2(C)C`, the IC50 in assay [1] turned out to be 10 nM; in assay [2] it was 16 nM. Further, the EC50 in assay [3] is 770 nM.
As to `CC(C)(C)[C@H](NC(=O)C(F)(F)F)C(=O)N1C[C@H]2[C@@H]([C@H]1C(=O)N[C@H](C#N)C[C@@H]1CCNC1=O)C2(C)C`, in assay [3], the EC50 stood at 212 nM.
On to `COC(=O)[C@H](C[C@@H]1CCNC1=O)NC(=O)[C@@H]1[C@@H]2[C@H](CN1C(=O)[C@@H](NC(=O)C(F)(F)F)C(C)(C)C)C2(C)C`, for which the IC50 in assay [1] and in assay [2] was over 100000 nM each time.
`CC(C)(C)[C@H](NC(=O)C(F)(F)F)C(=O)N1C[C@H]2[C@@H]([C@H]1C(=O)N[C@@H](C[C@@H]1CCNC1=O)C(=O)COCc1ccccc1)C2(C)C`: the IC50 in assay [1] came out at 27 nM; in assay [2] it was 467 nM. The 50% effective concentration (EC50) in assay [3] turned out to be 513 nM.
As for `CC(C)(C)[C@H](NC(=O)C(F)(F)F)C(=O)N1C[C@H]2[C@@H]([C@H]1C(=O)N[C@@H](C[C@@H]1CCNC1=O)C(N)=O)C2(C)C`, the IC50 in assay [1] and in assay [2] was over 100000 nM in each case.
For the compound `CC(C)(C)[C@H](NC(=O)C(F)(F)F)C(=O)N1C[C@H]2[C@@H]([C@H]1C(=O)NCCC1CCNC1=O)C2(C)C` (some centres not stated), the IC50 in assay [1] and in assay [2] was over 100000 nM throughout.
In assay [2], `CC(C)(C)[C@H](NC(=O)C(F)(F)F)C(=O)N1C[C@H]2[C@@H]([C@H]1C(=O)N[C@@H](C[C@@H]1CCNC1=O)C(=O)c1nc3ccccc3s1)C2(C)C` gave an IC50 of 239 nM. Moreover, in assay [3], the EC50 amounted to 242 nM.
